Measurements taken from US11453647B2, “Benzimidazole derivatives as adenosine receptor antagonists” (Merck Patent GmbH, priority 2017, dated 2022).

Tests used:
Assay type in all cases: cell-based
[1] = target: T1, human A2A receptor (Homo sapiens, UniProt P29274); test: functional cAMP (HTRF) assay, recombinant HEK293 cells expressing human A2A receptor, agonist NECA
T1 construct: expressed in transfected cells; host or cells: HEK293

[2] = target: T2, human A1 receptor (Homo sapiens, UniProt P30542); test: functional cAMP (HTRF) assay, recombinant CHO cells expressing human A1 receptor, forskolin, agonist CPA
T2 construct: expressed in transfected cells; host or cells: CHO
T2 sequence (P30542 1-326): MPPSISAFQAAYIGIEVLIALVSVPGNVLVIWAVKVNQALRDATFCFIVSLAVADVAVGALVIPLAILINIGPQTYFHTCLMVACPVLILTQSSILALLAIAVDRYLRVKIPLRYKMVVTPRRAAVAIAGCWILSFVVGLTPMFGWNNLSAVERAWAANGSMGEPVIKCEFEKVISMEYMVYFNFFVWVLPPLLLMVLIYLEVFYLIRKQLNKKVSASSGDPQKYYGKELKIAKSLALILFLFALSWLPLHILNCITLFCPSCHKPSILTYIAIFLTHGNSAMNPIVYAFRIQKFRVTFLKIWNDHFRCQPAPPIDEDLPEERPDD
Method: (§1) The functional activities of human A2A, A2B, A1 and A3 receptors were determined by quantification of cAMP, being the second messenger for adenosine receptors.
(§2) For human A1 and A3 receptors, recombinant CHO cells, expressing either A1 or A3-receptor, were used. As both receptors couple to Gi proteins, the assay protocol was adapted:
(§3) Cells were seeded into 384-well plates, forskolin, test compounds and agonists (CPA for A1- and IB-MECA for A3-receptor) were added. After 30 min incubation, HTRF reagents (cAMP dynamic 2, Cis Bio) were added and the cellular cAMP levels were determined using the ENVISION (Perkin Elmer) plate reader. Obtained raw data were normalized against the inhibitor control and the neural control (DMSO) and the normalized data were fitted using GeneData software.

[3] = target: T3, A2B receptors (Homo sapiens, UniProt P29275); test: functional cAMP (HTRF) assay, recombinant HEK293 cells expressing human A2B receptor, agonist NECA; parameters: expressed in transfected cells; host or cells: HEK293
T3 sequence (P29275 1-332): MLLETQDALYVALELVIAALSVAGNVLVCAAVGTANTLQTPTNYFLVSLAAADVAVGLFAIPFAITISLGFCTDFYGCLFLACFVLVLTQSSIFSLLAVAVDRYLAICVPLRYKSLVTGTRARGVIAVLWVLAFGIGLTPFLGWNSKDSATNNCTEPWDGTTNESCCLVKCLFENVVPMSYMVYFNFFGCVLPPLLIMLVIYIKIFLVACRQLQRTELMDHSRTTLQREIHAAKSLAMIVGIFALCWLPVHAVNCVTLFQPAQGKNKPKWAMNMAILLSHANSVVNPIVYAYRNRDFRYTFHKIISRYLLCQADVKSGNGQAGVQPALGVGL

[4] = target: T4, human A3 receptor (Homo sapiens, UniProt P0DMS8); test: functional cAMP (HTRF) assay, recombinant CHO cells expressing human A3 receptor, forskolin, agonist IB-MECA
T4 construct: expressed in transfected cells; host or cells: CHO
T4 sequence (P0DMS8 1-318): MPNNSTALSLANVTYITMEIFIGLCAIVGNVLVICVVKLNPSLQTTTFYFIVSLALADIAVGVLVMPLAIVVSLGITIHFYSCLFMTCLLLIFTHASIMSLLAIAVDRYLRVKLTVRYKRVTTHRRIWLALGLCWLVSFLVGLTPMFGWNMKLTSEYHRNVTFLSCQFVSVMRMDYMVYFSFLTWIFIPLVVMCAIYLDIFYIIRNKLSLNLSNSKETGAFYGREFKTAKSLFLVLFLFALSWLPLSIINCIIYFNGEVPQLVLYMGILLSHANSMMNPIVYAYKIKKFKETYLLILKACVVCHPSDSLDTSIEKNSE
Method: as §1, §2, §3

T1 sequence (P29274 whole entry): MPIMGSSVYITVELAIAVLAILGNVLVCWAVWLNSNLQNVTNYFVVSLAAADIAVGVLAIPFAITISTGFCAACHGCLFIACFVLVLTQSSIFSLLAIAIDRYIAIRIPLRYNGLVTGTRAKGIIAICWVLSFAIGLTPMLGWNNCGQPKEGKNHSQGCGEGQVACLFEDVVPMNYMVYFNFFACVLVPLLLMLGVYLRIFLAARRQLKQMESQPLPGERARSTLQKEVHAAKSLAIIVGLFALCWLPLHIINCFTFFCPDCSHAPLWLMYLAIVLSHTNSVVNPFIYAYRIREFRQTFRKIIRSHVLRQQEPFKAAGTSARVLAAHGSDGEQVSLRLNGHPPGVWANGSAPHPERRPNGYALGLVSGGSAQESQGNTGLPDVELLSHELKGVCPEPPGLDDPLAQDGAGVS

For `COc1ccc(-c2ccccc2)c2nc(NC(=O)c3ccc(CCl)cc3)[nH]c12` [compound 10, 4-Chloromethyl-N-(7-methoxy-4-phenyl-1H-benzoimidazol-2-yl)-benzamide], the IC50 [1] was under 10 nM, the IC50 [2] was over 1000 nM and the IC50 [3] was under 100 nM.
Compound `COc1ccc(C2CCOCC2)c2nc(NC(=O)c3ccnc(N4CCC(C)(O)CC4)c3)[nH]c12` [compound 118, 2-(4-hydroxy-4-methylpiperidin-1-yl)-N-[7-methoxy-4-(oxan-4-yl)-1H-1,3-benzodiazol-2-yl]pyridine-4-carboxamide] has an IC50 [1] of under 10 nM, an IC50 [2] of over 1000 nM and an IC50 [3] of over 1000 nM.
For `COc1ccc(N2CCCCCC2)c2nc(NC(=O)N3CCC(C)(O)CC3)[nH]c12` [compound 216, N-[4-(azepan-1-yl)-7-methoxy-1H-1,3-benzodiazol-2-yl]-4-hydroxy-4-methylpiperidine-1-carboxamide], the IC50 [1] was under 100 nM, the IC50 [2] was over 1000 nM and the IC50 [4] was over 1000 nM.
`COc1ccc(-c2cnn(C)c2)c2nc(NC(=O)c3cncs3)[nH]c12` [compound 219, N-[7-methoxy-4-(1-methyl-1H-pyrazol-4-yl)-1H-1,3-benzodiazol-2-yl]-1,3-thiazole-5-carboxamide] was tested, and the IC50 [1] was under 10 nM, the IC50 [2] was under 1000 nM and the IC50 [3] was under 10 nM.
In the case of `COc1ccc(C2CCOCC2)c2nc(NC(=O)C3(C#N)CC3)[nH]c12` [compound 226, 1-cyano-N-[7-methoxy-4-(oxan-4-yl)-1H-1,3-benzodiazol-2-yl]cyclopropane-1-carboxamide], the IC50 [1] is reported as under 100 nM, the IC50 [2] is reported as over 1000 nM and the IC50 [4] is reported as over 1000 nM.
`COc1ccc(C2CCOCC2)c2nc(NC(=O)c3cnc(C)s3)[nH]c12` [compound 227, N-[7-methoxy-4-(oxan-4-yl)-1H-1,3-benzodiazol-2-yl]-2-methyl-1,3-thiazole-5-carboxamide] was tested, and the IC50 [1] was under 10 nM, the IC50 [2] was over 1000 nM and the IC50 [3] was under 100 nM.
For `COc1ccc(C2CCOCC2)c2nc(NC(=O)NCc3nccs3)[nH]c12` [compound 228, 3-[7-methoxy-4-(oxan-4-yl)-1H-1,3-benzodiazol-2-yl]-1-[(1,3-thiazol-2-yl)methyl]urea], the IC50 [1] was under 100 nM and the IC50 [2] was over 1000 nM.
Work on `COc1ccc(-c2cnn(C(F)F)c2)c2nc(NC(=O)N3CCC(C)(O)CC3)[nH]c12` [compound 229, N-{7-[1-(difluoromethyl)-1H-pyrazol-4-yl]-4-methoxy-1H-1,3-benzodiazol-2-yl}-4-hydroxy-4-methylpiperidine-1-carboxamide] yielded an IC50 [1] of under 100 nM, an IC50 [2] of over 1000 nM and an IC50 [4] of over 1000 nM.
With `COCCOCCn1cc(-c2ccc(OC)c3nc(NC(=O)N4CCC(C)(O)CC4)[nH]c23)cn1` [compound 230, 4-hydroxy-N-(4-methoxy-7-{1-[2-(2-methoxyethoxy)ethyl]-1H-pyrazol-4-yl}-1H-1,3-benzodiazol-2-yl)-4-methylpiperidine-1-carboxamide] the IC50 [1] was under 100 nM, the IC50 [2] was over 1000 nM and the IC50 [4] was over 1000 nM.
With `COc1ccc(-c2cnn(-c3ccccn3)c2)c2[nH]c(NC(=O)N3CCC(C)(O)CC3)nc12` [compound 231, 4-hydroxy-N-{4-methoxy-7-[1-(pyridin-2-yl)-1H-pyrazol-4-yl]-1H-1,3-benzodiazol-2-yl}-4-methylpiperidine-1-carboxamide] the IC50 [1] was under 100 nM, the IC50 [2] was under 1000 nM and the IC50 [4] was under 1000 nM.
In the case of `CCCC1(c2ccc(OC)c3[nH]c(NC(=O)c4cnn(C)c4)nc23)CC1` [compound 232, N-[7-methoxy-4-(1-propylcyclopropyl)-1H-1,3-benzodiazol-2-yl]-1-methyl-1H-pyrazole-4-carboxamide], the IC50 [1] is reported as under 100 nM, the IC50 [2] is reported as over 1000 nM and the IC50 [4] is reported as under 1000 nM.
For `CCCC(CC)c1ccc(OC)c2[nH]c(NC(=O)c3cnn(C)c3)nc12` (centres unmarked) [compound 233, N-[4-(hexan-3-yl)-7-methoxy-1H-1,3-benzodiazol-2-yl]-1-methyl-1H-pyrazole-4-carboxamide], the IC50 [1] was under 100 nM, the IC50 [2] was over 1000 nM and the IC50 [4] was under 10 nM.
Compound `COc1ccc(-c2ccccc2F)c2nc(NC(=O)c3cnn(C)c3)[nH]c12` [compound 243, N-[4-(2-fluorophenyl)-7-methoxy-1H-1,3-benzodiazol-2-yl]-1-methyl-1H-pyrazole-4-carboxamide] has an IC50 [1] of under 10 nM, an IC50 [2] of under 1000 nM and an IC50 [3] of under 10 nM.
`COc1ccc(-c2ccccc2)c2nc(NC(=O)c3cncn3C)[nH]c12` [compound 254, N-(7-methoxy-4-phenyl-1H-1,3-benzodiazol-2-yl)-1-methyl-1H-imidazole-5-carboxamide] was tested, and the IC50 [1] was under 10 nM, the IC50 [2] was under 1000 nM and the IC50 [3] was under 10 nM.
`COc1ccc(-c2ccccc2)c2nc(NC(=O)c3cncs3)[nH]c12` [compound 256, N-(7-methoxy-4-phenyl-1H-1,3-benzodiazol-2-yl)-1,3-thiazole-5-carboxamide] showed an IC50 [1] of under 10 nM, an IC50 [2] of under 1000 nM and an IC50 [3] of under 10 nM.
`COc1ccc(-c2ccccc2)c2nc(NC(=O)c3cnc(C)s3)[nH]c12` [compound 257, N-(7-methoxy-4-phenyl-1H-1,3-benzodiazol-2-yl)-2-methyl-1,3-thiazole-5-carboxamide] showed an IC50 [1] of under 10 nM, an IC50 [2] of under 1000 nM and an IC50 [3] of under 10 nM.
`COc1ccc(-c2ccccc2)c2nc(NC(=O)c3cnc(N)s3)[nH]c12` [compound 258, 2-amino-N-(7-methoxy-4-phenyl-1H-1,3-benzodiazol-2-yl)-1,3-thiazole-5-carboxamide] gave an IC50 [1] of under 10 nM, an IC50 [2] of under 1000 nM and an IC50 [3] of under 10 nM.
Compound `COc1ccc(-c2cccnc2)c2nc(NC(=O)c3cnn(C)c3)[nH]c12` [compound 260, N-[7-methoxy-4-(pyridin-3-yl)-1H-1,3-benzodiazol-2-yl]-1-methyl-1H-pyrazole-4-carboxamide] has an IC50 [1] of under 10 nM, an IC50 [2] of under 1000 nM and an IC50 [3] of under 10 nM.
`COc1ccc(-c2ccncc2)c2[nH]c(NC(=O)c3c[nH]cn3)nc12` [compound 266, N-[4-methoxy-7-(pyridin-4-yl)-1H-1,3-benzodiazol-2-yl]-1H-imidazole-4-carboxamide] showed an IC50 [1] of under 100 nM, an IC50 [2] of over 1000 nM and an IC50 [3] of under 100 nM.
Compound `COCCOc1cccc(-c2ccc(OC)c3nc(NC(=O)c4c[nH]cn4)[nH]c23)c1` [compound 267, N-{4-methoxy-7-[3-(2-methoxyethoxy)phenyl]-1H-1,3-benzodiazol-2-yl}-1H-imidazole-4-carboxamide] has an IC50 [1] of under 10 nM, an IC50 [2] of under 1000 nM and an IC50 [3] of under 10 nM.
`COc1ccc(-c2ccc3cc[nH]c3c2)c2nc(NC(=O)N3CCC(C)(O)CC3)[nH]c12` [compound 272, 4-hydroxy-N-[4-(1H-indol-6-yl)-7-methoxy-1H-1,3-benzodiazol-2-yl]-4-methylpiperidine-1-carboxamide] gave an IC50 [1] of under 100 nM, an IC50 [2] of over 1000 nM and an IC50 [3] of under 100 nM.
For `COc1ccc(-c2ccccc2)c2nc(NC(=O)c3cnc4n3CCCC4)[nH]c12` [compound 291, N-(7-methoxy-4-phenyl-1H-1,3-benzodiazol-2-yl)-5H,6H,7H,8H-imidazo[1,2-a]pyridine-3-carboxamide], the IC50 [1] was under 100 nM, the IC50 [2] was under 1000 nM and the IC50 [3] was under 100 nM.
For `COc1ccc(N2CCCOCC2)c2nc(NC(=O)c3ccc(C(=O)N(C)C)cc3)[nH]c12` [compound 313, N4-[7-methoxy-4-(1,4-oxazepan-4-yl)-1H-1,3-benzodiazol-2-yl]-N1,N1-dimethylbenzene-1,4-dicarboxamide], the IC50 [1] was under 10 nM, the IC50 [4] was over 1000 nM and the IC50 [3] was over 1000 nM.
